Experimental data taken from PubChem BioAssay (NCI).
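How tested: cells in 96-well plates exposed to compound for 48 hours at five concentrations. Abbreviation: GI50, concentration required for 50% inhibition of growth. The concentration for full growth arrest is given as TGI.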

What was measured:
Assay in all cases: NCI anticancer screen, dose series, 48 h
[1] = system: SN12C renal
[2] = system: COLO 205 colon
[3] = system: LOX IMVI melanoma
[4] = system: MDA-MB-231 breast
[5] = system: K-562 leukemia
[6] = system: A549 NSCLC
[7] = system: HCT-15 colon
[8] = system: PC-3 prostate
[9] = system: HT29 colon
[10] = system: KM12 colon
[11] = system: T-47D breast
[12] = system: SF-268 CNS
[13] = system: NCI/ADR-RES ovarian
[14] = system: UO-31 renal
[15] = system: MDA-MB-468 breast
[16] = system: OVCAR-4 ovarian
[17] = system: MDA-MB-435
[18] = system: OVCAR-5 ovarian
[19] = system: HCC-2998 colon
[20] = system: HCT-116 colon
[21] = system: U251 CNS
[22] = system: RXF 393 renal
[23] = system: HOP-62 NSCLC
[24] = system: DU-145 prostate
[25] = system: MCF7 breast
[26] = system: UACC-257 melanoma
[27] = system: NCI-H522 lung
[28] = system: MALME-3M melanoma
[29] = system: CCRF-CEM leukemia
[30] = system: NCI-H226 lung
[31] = system: M14 melanoma
[32] = system: SK-OV-3 ovarian
[33] = system: OVCAR-8 ovarian
[34] = system: TK-10 renal
[35] = system: IGROV1 ovarian
[36] = system: EKVX NSCLC
[37] = system: NCI-H23 lung
[38] = system: SK-MEL-2 melanoma
[39] = system: BT-549 breast
[40] = system: 786-0 renal
[41] = system: SF-295 CNS
[42] = system: MOLT-4 leukemia
[43] = system: A498 renal
[44] = system: SNB-19 CNS
[45] = system: NCI-H460 lung
[46] = system: OVCAR-3 ovarian
[47] = system: SNB-75 CNS
[48] = system: HS 578T breast
[49] = system: CAKI-1 renal
[50] = system: SK-MEL-5 melanoma
[51] = system: ACHN renal
[52] = system: SW-620 colon
[53] = system: SF-539 CNS
[54] = system: UACC-62 melanoma
[55] = system: HOP-92 NSCLC
[56] = system: SR leukemia
[57] = system: SK-MEL-28 melanoma
[58] = system: RPMI-8226 leukemia
[59] = system: HL-60(TB) leukemia

`Clc1cccc(N/N=C/c2c[nH]c3ccccc23)n1` showed a GI50 [1] of 2.28 µM, a TGI [1] of 11.7 µM and a GI50 [2] of 13.8 µM. It also gave a TGI [2] of 28.8 µM, a GI50 [3] of 3.32 µM and a TGI [3] of 17 µM. For the same molecule, the GI50 [4] was 1.37 µM, the TGI [4] was 9.57 µM and the GI50 [5] was 1.94 µM. For the same molecule, the TGI [5] was 41 µM, the GI50 [6] was 13.2 µM and the TGI [6] was 38.2 µM. For the same molecule, the GI50 [7] was 8.1 µM, the TGI [7] was 21.5 µM and the GI50 [8] was 2.98 µM. For the same molecule, the TGI [8] was 26.6 µM, the GI50 [9] was 15 µM and the TGI [9] was 31.8 µM. It also gave a GI50 [10] of 9.78 µM, a TGI [10] of 26.9 µM and a GI50 [11] of 4.04 µM. It also gave a TGI [11] of 19 µM, a GI50 [12] of 2.99 µM and a TGI [12] of 25.9 µM. For the same molecule, the GI50 [13] was 2.98 µM, the TGI [13] was 16.5 µM and the GI50 [14] was 1.21 µM. For the same molecule, the TGI [14] was 14.1 µM, the GI50 [15] was 1.89 µM and the TGI [15] was 5.01 µM. It also gave a GI50 [16] of 10.5 µM, a TGI [16] of 29 µM and a GI50 [17] of 2.46 µM. For the same molecule, the TGI [17] was 12 µM, the GI50 [18] was 11 µM and the TGI [18] was 23.7 µM. It also gave a GI50 [19] of 12 µM, a TGI [19] of 24.6 µM and a GI50 [20] of 12.1 µM. It also gave a TGI [20] of 25.2 µM, a GI50 [21] of 10.7 µM and a TGI [21] of 25.8 µM. For the same molecule, the GI50 [22] was 2.84 µM, the TGI [22] was 18.1 µM and the GI50 [23] was 10 µM. The TGI [23] was 22.3 µM, the GI50 [24] was 13 µM and the TGI [24] was 26 µM. The GI50 [25] was 2.67 µM, the TGI [25] was 16.4 µM and the GI50 [26] was 11.6 µM. The TGI [26] was 24 µM, the GI50 [27] was 1.03 µM and the TGI [27] was 12.4 µM. It also gave a GI50 [28] of 7.33 µM, a TGI [28] of 20.8 µM and a GI50 [29] of 0.307 µM. For the same molecule, the TGI [29] was 19.4 µM, the GI50 [30] was 1.65 µM and the TGI [30] was 17.2 µM. The GI50 [31] was 11.9 µM, the TGI [31] was 25.4 µM and the GI50 [32] was 2.39 µM. It also gave a TGI [32] of 16.8 µM, a GI50 [33] of 8.12 µM and a TGI [33] of 21 µM. For the same molecule, the GI50 [34] was 19.5 µM, the TGI [34] was 42.3 µM and the GI50 [35] was 1.37 µM. The TGI [35] was 6.92 µM, the GI50 [36] was 1.97 µM and the TGI [36] was 16.8 µM. It also gave a GI50 [37] of 12.5 µM, a TGI [37] of 26.3 µM and a GI50 [38] of 12.9 µM. It also gave a TGI [38] of 25.9 µM, a GI50 [39] of 0.245 µM and a TGI [39] of 11 µM. For the same molecule, the GI50 [40] was 11.1 µM, the TGI [40] was 24.2 µM and the GI50 [41] was 11.4 µM. For the same molecule, the TGI [41] was 23.5 µM, the GI50 [42] was 1.55 µM and the TGI [42] was 21.9 µM. It also gave a GI50 [43] of 18.7 µM, a TGI [43] of 34 µM and a GI50 [44] of 12.7 µM. It also gave a TGI [44] of 30.8 µM, a GI50 [45] of 11.5 µM and a TGI [45] of 28.8 µM. For the same molecule, the GI50 [46] was 3.85 µM, the TGI [46] was 19.3 µM and the GI50 [47] was 0.141 µM. It also gave a TGI [47] of 5 µM, a GI50 [48] of 4.17 µM and a TGI [48] of 27.8 µM. It also gave a GI50 [49] of 2.23 µM, a TGI [49] of 19.1 µM and a GI50 [50] of 8.61 µM. For the same molecule, the TGI [50] was 21 µM, the GI50 [51] was 10.5 µM and the TGI [51] was 33.6 µM. The GI50 [52] was 13.3 µM, the TGI [52] was 28 µM and the GI50 [53] was 1.47 µM. It also gave a TGI [53] of 11.9 µM, a GI50 [54] of 10.3 µM and a TGI [54] of 22 µM. It also gave a GI50 [55] of 5.32 µM, a TGI [55] of 20.7 µM and a GI50 [56] of 2.93 µM. It also gave a TGI [56] of 19.3 µM, a GI50 [57] of 14.5 µM and a TGI [57] of 27.6 µM. For the same molecule, the GI50 [58] was 0.83 µM, the TGI [58] was 14.5 µM and the GI50 [59] was 1.28 µM. It also gave a TGI [59] of 13.9 µM.
